Measured values from US6906095B2, “Indolylalkylidenehydrazine-carboximidamide derivatives as 5-hydroxytryptamine-6 ligands” (Wyeth, priority 2002, dated 2005).

Target: T1, human cloned 5-HT6 receptors (Homo sapiens, UniProt P50406)
T1 construct: expressed in transfected cells; host or cells: Hela cells
Assay: 5-HT6 binding affinity, [3H]-LSD displacement in membranes of Hela cells
Settings: for inhibition at 0.1 µM: test compound dose 100 nM; for inhibition at 0.1 µM / inhibition at 1 µM / inhibition at 0.01 µM: [3H]-LSD 3.0 nM; for inhibition at 1 µM: test compound dose 1000 nM, read-out: % Inhibition; for inhibition at 0.01 µM: test compound dose 10 nM
Procedure: The affinity of test compounds for the serotonin 5-HT6 receptor is evaluated in the following manner. Cultured Hela cells expressing human cloned 5-HT6 receptors are harvested and centrifuged at low speed (1,000×g) for 10.0 min to remove the culture media. The harvested cells are suspended in half volume of fresh physiological phosphate buffered saline solution and recentrifuged at the same speed. This operation is repeated. The collected cells are then homogenized in ten volumes of 50 mM Tris.HCl (pH 7.4) and 0.5 mM EDTA. The homogenate is centrifuged at 40,000×g for 30.0 min and the precipitate is collected. The obtained pellet is resuspended in 10 volumes of Tris.HCl buffer and recentrifuged at the same speed. The final pellet is suspended in a small volume of Tris.HCl buffer and the tissue protein content is determined in aliquots of 10-25 μl volumes. Bovine Serum Albumin is used as the standard in the protein determination according to the method described in Lowry et al., J. Biol. Chem., 193:265 (1951). The volume of the suspended cell membranes is adjusted to give a tissue protein concentration of 1.0 mg/ml of suspension. The prepared membrane suspension (10 times concentrated) is aliquoted in 1.0 ml volumes and stored at −70° C. until used in subsequent binding experiments.
The reaction is allowed to proceed in the dark for 120 min at room temperature, at which time, the bound ligand-receptor complex is filtered off on a 96 well unifilter with a Packard Filtermate® 196 Harvester. The bound complex caught on the filter disk is allowed to air dry and the radioactivity is measured in a Packard TopCount® equipped with six photomultiplier detectors, after the addition of 40.0 μl Microscint®-20 scintillant to each shallow well. The unifilter plate is heat-sealed and counted in a PackardTopCount® with a tritium efficiency of 31.0%.
Specific binding to the 5-HT6 receptor is defined as the total radioactivity bound less the amount bound in the presence of 10.0 μM unlabeled methiothepin. Binding in the presence of varying concentrations of test compound is expressed as a percentage of specific binding in the absence of test compound. The results are plotted as logit % bound versus log concentration of test compound. Nonlinear regression analysis of data points with a computer assisted program Prism® yields both the IC50 and the Ki values of test compounds with 95% confidence limits.
The amount of displacement by the test compound is given in percent (%) inhibition and is derived from the following equation: [formula] where B0 is the amount of CPM bound in the presence of the testing agent. NSB represents the CPM bound in the presence of a saturating concentration of a displacer and TB represents the total amount of CPM bound at zero (0) concentration of test compound.
Alternatively, a linear regression line of decline of data points is plotted, from which the IC50 value can be read off and the Ki value determined by solving the following equation: [formula] where L is the concentration of the radioactive ligand used and KD is the dissociation constant of the ligand for the receptor, both expressed in nM.

T1 sequence (P50406 whole entry): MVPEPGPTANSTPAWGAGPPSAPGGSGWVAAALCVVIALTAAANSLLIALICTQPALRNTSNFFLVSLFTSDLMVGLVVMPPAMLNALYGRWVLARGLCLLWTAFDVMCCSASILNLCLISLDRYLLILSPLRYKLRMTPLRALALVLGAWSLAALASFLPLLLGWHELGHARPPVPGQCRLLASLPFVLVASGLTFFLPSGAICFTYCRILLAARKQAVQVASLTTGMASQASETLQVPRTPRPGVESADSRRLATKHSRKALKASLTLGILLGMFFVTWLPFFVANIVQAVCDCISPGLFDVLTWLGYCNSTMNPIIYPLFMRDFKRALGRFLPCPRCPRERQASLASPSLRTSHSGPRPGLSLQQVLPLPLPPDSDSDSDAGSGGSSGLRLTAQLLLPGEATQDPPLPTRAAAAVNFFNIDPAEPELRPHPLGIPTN

Structure (SMILES)	inhibition at 0.1 µM [%]	inhibition at 1 µM [%]	also measured
COc1ccc(S(=O)(=O)n2cc(C(=NNC(=N)N)C3CC3)c3ccccc32)cc1 [Example 63, 2-(cyclopropyl{1-[(4-methoxyphenyl)sulfonyl]-1H-indol-3-yl}methylidene)hydrazinecarboximidamide]	58.9		
CCCCC(=NNC(=N)N)c1cn(S(=O)(=O)c2ccc3ccccc3c2)c2ccccc12 [Example 65, 2-{1-[1-(2-naphthylsulfonyl)-1H-indol-3-yl]pentylidene}hydrazinecarboximidamide]		62.3	
N=C(N)NN=C(c1cn(S(=O)(=O)c2ccc3ccccc3c2)c2ccccc12)C1CC1 [Example 66, 2-{cyclopropyl[1-(2-naphthylsulfonyl)-1H-indol-3-yl]methylidene}hydrazinecarboximidamide]			inhibition at 0.01 µM: 35.1%
N=C(N)NN=C(c1cn(S(=O)(=O)c2ccccc2)c2ccccc12)C1CC1 [Example 68, 2-{cyclopropyl[1-(phenylsulfonyl)-1H-indol-3-yl]methylidene}hydrazinecarboximidamide]			inhibition at 0.01 µM: 68.3%
CC(=NNC(=N)N)c1cn(S(C)(=O)=O)c2ccc(Cl)cc12 [Example 72, 2-{1-[5-chloro-1-(methylsulfonyl)-1H-indol-3-yl]ethylidene}hydrazinecarboximidamide]	75.1		
CCCCS(=O)(=O)n1cc(C(C)=NNC(=N)N)c2cc(Cl)ccc21 [Example 75, 2-{1-[1-(butylsulfonyl)-5-chloro-1H-indol-3-yl]ethylidene}hydrazinecarboximidamide]	84.6		
CCCCC(=NNC(=N)N)c1cn(S(=O)(=O)CCCC)c2ccc(Cl)cc12 [Example 76, 2-{1-[1-(butylsulfonyl)-5-chloro-1H-indol-3-yl]pentylidene}hydrazinecarboximidamide]		74.5	
CCCCS(=O)(=O)n1cc(C(=NNC(=N)N)C2CC2)c2cc(Cl)ccc21 [Example 77, 2-[[1-(butylsulfonyl)-5-chloro-1H-indol-3-yl](cyclopropyl)methylidene]hydrazinecarboximidamide]			inhibition at 0.01 µM: 44.3%

Second part, led by results:

inhibition at 0.1 µM [%]	inhibition at 1 µM [%]	Structure (SMILES)	also measured
	89.6	CC(=NNC(=N)N)c1cn(S(=O)(=O)c2ccc3ccccc3c2)c2ccccc12 [Example 64, 2-{1-[1-(2-naphthylsulfonyl)-1H-indol-3-yl]ethylidene}hydrazinecarboximidamide]	
66.3		CCCCC(=NNC(=N)N)c1cn(S(=O)(=O)c2ccccc2)c2ccccc12 [Example 67, 2-{1-[1-(phenylsulfonyl)-1H-indol-3-yl]pentylidene}hydrazinecarboximidamide]	
72.4		COc1ccc(S(=O)(=O)n2cc(C(C)=NNC(=N)N)c3ccccc32)cc1OC [Example 69, 2-(1-{1-[(3,4-dimethoxyphenyl)sulfonyl]-1H-indol-3-yl}ethylidene)hydrazinecarboximidamide]	Ki: 12 nM
	89.8	CCCCC(=NNC(=N)N)c1cn(S(=O)(=O)c2ccc(OC)c(OC)c2)c2ccccc12 [Example 70, 2-(1-{1-[(3,4-dimethoxyphenyl)sulfonyl]-1H-indol-3-yl}pentylidene)hydrazinecarboximidamide]	
61.5		COc1ccc(S(=O)(=O)n2cc(C(=NNC(=N)N)C3CC3)c3ccccc32)cc1OC [Example 71, 2-(cyclopropyl{1-[(3,4-dimethoxyphenyl)sulfonyl]-1H-indol-3-yl}methylidene)hydrazinecarboximidamide]	
	71	CCCCC(=NNC(=N)N)c1cn(S(C)(=O)=O)c2ccc(Cl)cc12 [Example 73, 2-{1-[5-chloro-1-(methylsulfonyl)-1H-indol-3-yl]pentylidene}hydrazinecarboximidamide]	
68.5		CS(=O)(=O)n1cc(C(=NNC(=N)N)C2CC2)c2cc(Cl)ccc21 [Example 74, 2-[[5-chloro-1-(methylsulfonyl)-1H-indol-3-yl](cyclopropyl)methylidene]hydrazinecarboximidamide]	
